One molecule from BindingDB's records for doi:10.1016/0024-3205(89)90523-7 (Nida Addiction Research Center, 1989) can be followed below.

The target of experiment [1] is 5-hydroxytryptamine receptor 2A (Rattus norvegicus, UniProt P14842).
In experiment [2] the target is Sodium-dependent dopamine transporter (Rattus norvegicus, UniProt P23977).
The target in another experiment is D(2) dopamine receptor (Rattus norvegicus, UniProt P61169).
Experiment [3] concerns the target T1, Alpha-1A adrenergic receptor (Rattus norvegicus, UniProt P43140).
T1 sequence (P43140 whole entry): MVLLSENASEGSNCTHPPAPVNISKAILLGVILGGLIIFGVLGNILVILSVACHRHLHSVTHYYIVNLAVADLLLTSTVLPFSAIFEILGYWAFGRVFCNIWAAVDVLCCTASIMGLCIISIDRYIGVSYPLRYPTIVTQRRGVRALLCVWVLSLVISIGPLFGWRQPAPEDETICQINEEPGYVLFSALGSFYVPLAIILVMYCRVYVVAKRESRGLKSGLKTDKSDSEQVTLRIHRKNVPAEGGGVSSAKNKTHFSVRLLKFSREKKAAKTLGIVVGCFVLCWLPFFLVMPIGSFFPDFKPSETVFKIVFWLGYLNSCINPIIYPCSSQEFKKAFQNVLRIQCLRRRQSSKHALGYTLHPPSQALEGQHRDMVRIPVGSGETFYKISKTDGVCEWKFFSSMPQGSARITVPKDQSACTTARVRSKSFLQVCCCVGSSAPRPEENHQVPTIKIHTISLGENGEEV

Experiment [4] concerns the target T2, Muscarinic acetylcholine receptor M2 (Rattus norvegicus, UniProt P10980).
T2 sequence (P10980 whole entry): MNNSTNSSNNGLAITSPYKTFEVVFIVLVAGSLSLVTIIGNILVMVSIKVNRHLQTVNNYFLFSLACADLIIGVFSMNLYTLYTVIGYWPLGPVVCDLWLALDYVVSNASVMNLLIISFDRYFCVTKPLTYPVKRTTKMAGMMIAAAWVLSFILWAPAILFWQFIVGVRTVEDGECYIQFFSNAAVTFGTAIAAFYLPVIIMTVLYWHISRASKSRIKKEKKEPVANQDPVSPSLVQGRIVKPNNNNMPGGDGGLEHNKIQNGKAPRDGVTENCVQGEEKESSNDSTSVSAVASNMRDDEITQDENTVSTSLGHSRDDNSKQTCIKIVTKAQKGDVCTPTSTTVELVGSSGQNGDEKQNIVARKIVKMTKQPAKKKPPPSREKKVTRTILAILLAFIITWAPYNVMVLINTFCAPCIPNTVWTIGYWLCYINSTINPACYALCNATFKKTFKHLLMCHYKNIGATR

The next experiment addresses D(1A) dopamine receptor (Rattus norvegicus, UniProt P18901).
The target in experiment [5] is Norepinephrine transporter (Rattus norvegicus, UniProt Q9JIA2).

pKi: −log10 of the molar value. Several values for one entry are separate records, joined by “and”; a condition that tells them apart may be missing. Equal entries are not always repeated.

Chain of D(2) dopamine receptor (P61169 whole entry): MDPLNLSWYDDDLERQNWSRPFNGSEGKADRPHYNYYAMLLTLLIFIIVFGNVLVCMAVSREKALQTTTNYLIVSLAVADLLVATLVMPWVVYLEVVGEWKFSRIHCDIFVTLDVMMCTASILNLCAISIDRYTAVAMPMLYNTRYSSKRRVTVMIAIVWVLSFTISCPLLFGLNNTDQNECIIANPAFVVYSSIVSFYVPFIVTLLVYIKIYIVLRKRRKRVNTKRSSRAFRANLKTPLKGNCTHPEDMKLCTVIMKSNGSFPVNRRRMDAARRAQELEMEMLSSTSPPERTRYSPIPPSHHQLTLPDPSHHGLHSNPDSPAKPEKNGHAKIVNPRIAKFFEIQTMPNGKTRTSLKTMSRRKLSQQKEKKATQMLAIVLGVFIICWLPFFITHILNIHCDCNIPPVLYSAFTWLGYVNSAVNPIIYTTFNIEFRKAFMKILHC
Chain of 5-hydroxytryptamine receptor 2A (P14842 whole entry): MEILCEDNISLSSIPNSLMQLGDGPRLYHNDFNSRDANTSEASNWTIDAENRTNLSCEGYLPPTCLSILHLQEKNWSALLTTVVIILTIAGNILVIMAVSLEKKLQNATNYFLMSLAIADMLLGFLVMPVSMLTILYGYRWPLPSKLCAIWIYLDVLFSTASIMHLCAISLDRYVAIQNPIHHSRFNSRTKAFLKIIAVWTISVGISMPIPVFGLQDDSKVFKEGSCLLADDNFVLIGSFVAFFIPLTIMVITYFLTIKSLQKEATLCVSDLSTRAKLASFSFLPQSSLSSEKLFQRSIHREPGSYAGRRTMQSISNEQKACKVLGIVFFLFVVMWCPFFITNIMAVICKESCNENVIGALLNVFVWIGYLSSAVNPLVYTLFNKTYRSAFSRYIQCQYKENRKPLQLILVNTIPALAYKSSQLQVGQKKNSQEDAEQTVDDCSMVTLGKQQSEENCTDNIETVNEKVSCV
Chain of D(1A) dopamine receptor (P18901 whole entry): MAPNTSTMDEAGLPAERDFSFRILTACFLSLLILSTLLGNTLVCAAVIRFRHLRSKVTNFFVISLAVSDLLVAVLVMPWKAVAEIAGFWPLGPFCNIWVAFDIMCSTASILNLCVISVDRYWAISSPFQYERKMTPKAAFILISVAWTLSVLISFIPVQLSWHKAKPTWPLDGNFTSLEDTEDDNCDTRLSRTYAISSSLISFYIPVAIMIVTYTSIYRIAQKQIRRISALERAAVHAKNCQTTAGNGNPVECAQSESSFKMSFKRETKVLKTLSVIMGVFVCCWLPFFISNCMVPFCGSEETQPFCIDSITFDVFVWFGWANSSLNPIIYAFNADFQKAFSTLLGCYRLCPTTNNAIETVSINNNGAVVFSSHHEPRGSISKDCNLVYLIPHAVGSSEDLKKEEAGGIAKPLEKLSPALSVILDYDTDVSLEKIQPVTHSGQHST
Chain of Sodium-dependent dopamine transporter (P23977 whole entry): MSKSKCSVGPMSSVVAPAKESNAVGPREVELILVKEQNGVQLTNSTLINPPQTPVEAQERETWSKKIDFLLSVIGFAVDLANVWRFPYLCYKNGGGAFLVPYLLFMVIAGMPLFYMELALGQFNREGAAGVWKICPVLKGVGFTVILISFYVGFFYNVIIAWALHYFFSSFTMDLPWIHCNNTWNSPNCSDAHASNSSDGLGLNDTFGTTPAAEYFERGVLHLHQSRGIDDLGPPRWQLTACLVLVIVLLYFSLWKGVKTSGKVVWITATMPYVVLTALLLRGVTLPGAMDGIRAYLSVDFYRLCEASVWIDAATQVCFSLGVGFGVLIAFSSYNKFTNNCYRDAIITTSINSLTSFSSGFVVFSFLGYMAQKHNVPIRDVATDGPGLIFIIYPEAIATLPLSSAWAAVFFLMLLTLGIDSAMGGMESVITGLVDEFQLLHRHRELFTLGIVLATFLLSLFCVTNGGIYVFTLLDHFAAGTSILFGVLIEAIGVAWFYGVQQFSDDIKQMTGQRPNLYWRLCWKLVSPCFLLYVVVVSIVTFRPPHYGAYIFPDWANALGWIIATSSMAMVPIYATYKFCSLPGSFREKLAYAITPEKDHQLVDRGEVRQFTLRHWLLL

For `CNc1cc(OC)c(C(=O)NCCN(C)Cc2ccc(I)cc2)cc1Cl` [CAS_130377], the pKi was 5.75 in experiment [1]; 6.68 in experiment [2]; 9.89 and 9.67 on D(2) dopamine receptor; 7.21 in experiment [3]; 6.96 in experiment [4]; 5.73 at D(1A) dopamine receptor. In experiment [5], the pKi is 5.57.

As usually defined, the pKi is −log10 of the Ki, conventionally taken in molar units. Higher therefore signals a low Ki.
